Experimental data as given in patent US20240317775A1, “H4 Antagonist Compounds” (HEPTARES THERAPEUTICS LIMITED, priority 2020, published 2024).

Tests used:
hERG = hERG (Homo sapiens, UniProt Q12809); experiment: hERG single-concentration assay (QPatch automated patch clamp, CHO cells, 30 μM); format: cell-based; conditions: CHO cells stably expressing hERG
Description: Series resistance (4-15 MΩ) was compensated by >80%.

human H4 receptor = target: T1, human H4 receptor (Homo sapiens, UniProt Q9H3N8); experiment: H4 Antagonist Functional cAMP Gi Assay; format: cell-based; conditions: HEKf cells expressing human H4 receptor; functional antagonist pKb by Cheng-Prusoff vs histamine; read-out: Human H4 cAMP fpKb (converted)
T1 construct: expressed in transfected cells; host or cells: HEKf cells infected with baculovirus
Method: HEKf cells were infected overnight using baculovirus expressing the human H4 receptor, then centrifuged at 1,200 rpm for 5 min, frozen in cell freezing medium (Sigma) and stored at −150° C. On the day of assay, the cells were thawed and resuspended in HBSS with 500 nM IBMX to achieve a density of 1,500 cells/well. H4 ligands were prepared in DMSO and stamped by LabCyte ECHO acoustic dispensing at 25 nL in low volume plates. 10 μL/well cells were plated in the presence of 1 μM forskolin, subjected to centrifugation at 1,200 rpm for 1 min and incubated for 30 min prior to addition of Cisbio cAMP detection reagents to a total volume 20 μL/well. […] Following detection reagent addition and shaking at room temperature for 60 min, cAMP accumulation was measured using HTRF on a PheraStar plate reader. EC50 values were generated using a 4-parameter logistical fit equation to quantify agonist potencies. Functional antagonist affinity values were generated using the Cheng-Prusoff equation to calculate a pKb value using the antagonist assay data.

hERG, sequence (Q12809 whole entry): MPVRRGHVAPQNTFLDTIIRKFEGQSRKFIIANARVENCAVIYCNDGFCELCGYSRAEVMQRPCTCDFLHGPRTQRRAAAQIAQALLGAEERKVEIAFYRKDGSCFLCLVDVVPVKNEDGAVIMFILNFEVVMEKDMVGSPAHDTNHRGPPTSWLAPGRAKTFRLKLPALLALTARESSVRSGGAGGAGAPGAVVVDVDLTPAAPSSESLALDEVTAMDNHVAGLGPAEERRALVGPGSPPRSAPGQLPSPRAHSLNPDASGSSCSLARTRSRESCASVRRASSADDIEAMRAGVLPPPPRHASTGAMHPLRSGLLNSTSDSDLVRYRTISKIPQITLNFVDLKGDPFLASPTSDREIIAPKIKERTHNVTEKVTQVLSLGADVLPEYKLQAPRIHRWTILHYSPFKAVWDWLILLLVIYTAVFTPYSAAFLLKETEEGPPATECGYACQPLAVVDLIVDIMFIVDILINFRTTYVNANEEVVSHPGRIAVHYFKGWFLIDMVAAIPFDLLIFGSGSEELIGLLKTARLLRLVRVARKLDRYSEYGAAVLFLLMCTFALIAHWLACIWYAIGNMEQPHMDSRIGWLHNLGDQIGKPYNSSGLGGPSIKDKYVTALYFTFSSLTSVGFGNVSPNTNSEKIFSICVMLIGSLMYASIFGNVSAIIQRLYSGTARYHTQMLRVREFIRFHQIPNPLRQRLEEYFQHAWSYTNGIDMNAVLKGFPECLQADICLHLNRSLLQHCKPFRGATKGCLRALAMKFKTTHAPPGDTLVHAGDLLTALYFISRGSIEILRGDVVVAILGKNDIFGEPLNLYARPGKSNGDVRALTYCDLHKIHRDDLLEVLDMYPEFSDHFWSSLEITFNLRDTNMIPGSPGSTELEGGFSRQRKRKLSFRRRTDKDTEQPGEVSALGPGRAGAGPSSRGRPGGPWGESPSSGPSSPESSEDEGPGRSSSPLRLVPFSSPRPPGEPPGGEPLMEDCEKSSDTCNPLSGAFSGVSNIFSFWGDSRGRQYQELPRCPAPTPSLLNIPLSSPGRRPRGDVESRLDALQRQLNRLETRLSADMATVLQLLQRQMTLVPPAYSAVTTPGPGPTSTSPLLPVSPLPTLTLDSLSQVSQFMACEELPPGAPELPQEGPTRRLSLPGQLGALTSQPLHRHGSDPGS

| Kb (human H4 receptor) [nM] | Compound | inhibition at 30 µM (hERG) [%] |
| --- | --- | --- |
| 10 | CN[C@@H]1CCN(c2nc(N)nc3c2OC[C@@H](COC)N3)C1 [Example 1-9, (R)-7-(Methoxymethyl)-4-((R)-3-(methylamino)pyrrolidin-1-yl)-7,8-dihydro-6H-pyrimido[5,4-b][1,4]oxazin-2-amine] | 12 |
| 3.98 | CC(C)[C@@H]1COc2c(nc(N)nc2N2CCNCC2)N1 [Example 6-1, (R)-7-Isopropyl-4-(piperazin-1-yl)-7,8-dihydro-6H-pyrimido[5,4-b][1,4]oxazin-2-amine] | 13 |
| 316 | CN[C@@H]1CCN(c2ncnc3c2OCC(COC)N3)C1 (stereo partly drawn) [Example 7-3, (3R)-1-(7-(Methoxymethyl)-7,8-dihydro-6H-pyrimido[5,4-b][1,4]oxazin-4-yl)-N-methylpyrrolidin-3-amine] | 48 |
| 501 | CN[C@@H]1CCN(c2nc(N)nc3c2OCCN3)C1 [Example 1-1, (R)-4-(3-(Methylamino)pyrrolidin-1-yl)-7,8-dihydro-6H-pyrimido[5,4-b][1,4]oxazin-2-amine] | 25 |
| 3.16 | CC(C)[C@@H]1COc2c(nc(N)nc2N2CCN(C)CC2)N1 [Example 5-1, (R)-7-Isopropyl-4-(4-methylpiperazin-1-yl)-7,8-dihydro-6H-pyrimido[5,4-b][1,4]oxazin-2-amine] | 44 |
| 3.98 | CNC1CN(c2ncnc3c2OC[C@@H](C(C)C)N3)C1 [Example 9-1, (R)-1-(7-Isopropyl-7,8-dihydro-6H-pyrimido[5,4-b][1,4]oxazin-4-yl)-N-methylazetidin-3-amine] | 18 |
| 12.6 | CNC1CN(c2nc(N)nc3c2OC[C@@H]([C@@H](C)OC)N3)C1 [Example 3-4, (S)-7-((R)-1-Methoxyethyl)-4-(3-(methylamino)azetidin-1-yl)-7,8-dihydro-6H-pyrimido[5,4-b][1,4]oxazin-2-amine] | 12 |
| 398 | CN[C@@H]1CCN(c2nc(N)nc3c2OC(C)CN3)C1 (stereo partly drawn) [Example 1-15, 6-Methyl-4-((R)-3-(methylamino)pyrrolidin-1-yl)-7,8-dihydro-6H-pyrimido[5,4-b][1,4]oxazin-2-amine] | 1.5 |
| 1 | CC[C@@H]1COc2c(nc(N)nc2N2CC[C@@H](NC)C2)N1 [Example 1-3, (R)-7-Ethyl-4-((R)-3-(methylamino)pyrrolidin-1-yl)-7,8-dihydro-6H-pyrimido[5,4-b][1,4]oxazin-2-amine] | 18 |
| 251 | CN[C@@H]1CCN(c2nc(N)nc3c2OC[C@@]2(C)CCCN32)C1 [Example 1-22, (R)-6a-Methyl-4-((R)-3-(methylamino)pyrrolidin-1-yl)-6a,7,8,9-tetrahydro-6H-pyrimido[5,4-b]pyrrolo[1,2-d][1,4]oxazin-2-amine] | 45 |
| 25.1 | CN[C@@H]1CCN(c2nc(N)nc3c2OC[C@H](C(C)C)N3)C1 [Example 1-5, (S)-7-Isopropyl-4-((R)-3-(methylamino)pyrrolidin-1-yl)-7,8-dihydro-6H-pyrimido[5,4-b][1,4]oxazin-2-amine] | 68 |
| 0.631 | CN[C@@H]1CCN(c2ncnc3c2OC[C@@H](C(C)C)N3)C1 [Example 7-1, (R)-1-((R)-7-Isopropyl-7,8-dihydro-6H-pyrimido[5,4-b][1,4]oxazin-4-yl)-N-methylpyrrolidin-3-amine] | 31 |
| 10 | Nc1nc2c(c(N3CC[C@@H](N)C3)n1)OCC(C(F)(F)F)N2 (stereo partly drawn) [Example 2-3, 4-((R)-3-Aminopyrrolidin-1-yl)-7-(trifluoromethyl)-7,8-dihydro-6H-pyrimido[5,4-b][1,4]oxazin-2-amine] | 28 |
| 20 | Cc1cc(C)c2nc(-c3cnc(NCCCC4CCN(C)CC4)nc3C)[nH]c2c1 [Toreforant, reference compound] | 89 |
